Laboratory results: ChEMBL document CHEMBL5321285 (J Med Chem, 2023)
≈ marks a conversion by molar mass, not a printed value. Calls of active or inactive are those of the source. No cut-off for these calls is given here.

Experiments:
[1] = biological target: Sigma non-opioid intracellular receptor 1 (Homo sapiens, UniProt Q99720); test: Displacement of [3H]-(+)-pentazocine from human sigma1 receptor transfected in HEK293 cell membranes assessed as inhibition constant incubated for 120 mins in presence of haloperidol by microbeta scintillation counter analysis; design: species or system Cell membrane
Homo sapiens = species on record: Homo sapiens; test: Selectivity ratio of Ki for displacement of [3H]-(+)-pentazocine from human sigma1 receptor transfected in HEK293 cell membranes assessed as inhibition constant to Ki for displacement of [3H]-1,3-di-O-tolylguanidine from human sigma 2 receptor/TMEM97 transfected in sigma 1 receptor knockout HEK293 cell membranes assessed as inhibition constant
[2] = biological target: Sigma intracellular receptor 2 (Homo sapiens, UniProt Q5BJF2); test: Displacement of [3H]-1,3-di-O-tolylguanidine from human sigma 2 receptor/TMEM97 transfected in sigma 1 receptor knockout HEK293 cell membranes assessed as inhibition constant measured after 120 mins by microbeta scintillation counting analysis; design: species or system Cell membrane
[3] = Metabolic stability in human liver microsome assessed as parent compound remaining at 1 uM measured after 1 hr in presence of NADPH regenerating system by UPLC-MS/MS analysis; assay type: ADME; conditions: liver microsomes, read-out: Stability
[4] = Metabolic stability in rat liver microsome assessed as parent compound remaining at 1 uM measured after 1 hr in presence of NADPH regenerating system by UPLC-MS/MS analysis; assay type: ADME; conditions: liver microsomes, read-out: Stability
[5] = Metabolic stability in mouse liver microsome assessed as parent compound remaining at 1 uM measured after 1 hr in presence of NADPH regenerating system by UPLC-MS/MS analysis; assay type: ADME; conditions: liver microsomes, read-out: Stability
[6] = biological target: Voltage-gated inwardly rectifying potassium channel KCNH2 (Homo sapiens, UniProt Q12809); test: Inhibition of hERG expressed in CHO cells at holding potential of -80 mV measured for 15 seconds by whole cell patch clamp assay; assay type: toxicity, cell-based
[7] = Lipophilicity, logP of compound; assay type: physicochemical; conditions: octanol/water
[8] = Lipophilicity, logD of the compound; assay type: physicochemical; conditions: octanol/water
[9] = Solubility of the compound at pH 7.4; assay type: physicochemical; conditions: buffer
[10] = Dissociation constant, pKa of the compound; assay type: physicochemical
Cytochrome P450 1A2 = biological target: T1, Cytochrome P450 1A2 (Homo sapiens, UniProt P05177); test: Inhibition of CYP1A2 in human liver microsomes using phenacetin as substrate incubated for 20 mins by UPLC-MS/MS analysis; assay type: ADME, Microsome
T1 sequence (P05177 whole entry): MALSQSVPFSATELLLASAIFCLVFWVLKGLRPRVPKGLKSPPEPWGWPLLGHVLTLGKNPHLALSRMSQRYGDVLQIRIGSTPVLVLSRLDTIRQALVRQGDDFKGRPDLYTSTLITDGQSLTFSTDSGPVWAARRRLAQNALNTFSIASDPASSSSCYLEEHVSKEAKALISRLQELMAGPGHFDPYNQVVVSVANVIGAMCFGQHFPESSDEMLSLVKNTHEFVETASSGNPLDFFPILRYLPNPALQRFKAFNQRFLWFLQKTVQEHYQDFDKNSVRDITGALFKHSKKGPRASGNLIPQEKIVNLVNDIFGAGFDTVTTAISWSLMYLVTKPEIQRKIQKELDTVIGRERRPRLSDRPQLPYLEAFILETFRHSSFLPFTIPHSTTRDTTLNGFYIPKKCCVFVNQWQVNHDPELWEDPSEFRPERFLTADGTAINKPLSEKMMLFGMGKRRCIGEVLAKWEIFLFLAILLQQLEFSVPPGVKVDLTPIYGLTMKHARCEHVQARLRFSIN

Cytochrome P450 2C9 = Cytochrome P450 2C9 (Homo sapiens, UniProt P11712); test: Inhibition of CYP2C9 in human liver microsomes using tolbutamide as substrate incubated for 20 mins by UPLC-MS/MS analysis; assay type: ADME, Microsome
Cytochrome P450 2C19 = Cytochrome P450 2C19 (Homo sapiens, UniProt P33261); test: Inhibition of CYP2C19 in human liver microsomes using S mephenytoin as substrate incubated for 20 mins by UPLC-MS/MS analysis; assay type: ADME, Microsome
Cytochrome P450 2D6 = Cytochrome P450 2D6 (Homo sapiens, UniProt P10635); test: Inhibition of CYP2D6 in human liver microsomes using bufuralol as substrate incubated for 20 mins by UPLC-MS/MS analysis; assay type: ADME, Microsome
Cytochrome P450 3A4 = Cytochrome P450 3A4 (Homo sapiens, UniProt P08684); test: Inhibition of CYP3A4 in human liver microsomes using testosterone as substrate incubated for 20 mins by UPLC-MS/MS analysis; assay type: ADME, Microsome
[11] = Metabolic stability in human liver microsome assessed as intrinsic clearance incubated upto 60 mins in presence of NADPH regenerating system by UPLC-MS/MS analysis; assay type: ADME; conditions: liver microsomes, read-out: CLH
[12] = Metabolic stability in rat liver microsome assessed as intrinsic clearance incubated upto 60 mins in presence of NADPH regenerating system by UPLC-MS/MS analysis; assay type: ADME; conditions: liver microsomes, read-out: CLH
[13] = Metabolic stability in mouse liver microsome assessed as intrinsic clearance incubated upto 60 mins in presence of NADPH regenerating system by UPLC-MS/MS analysis; assay type: ADME; conditions: liver microsomes, read-out: CLH
[14] = Apparent permeability across apical to basolateral side in human Caco-2 cells incubated for 2 hrs by UPLC-MS/MS analysis; assay type: ADME, cell-based
[15] = Efflux ratio of apparent permeability across […] in human Caco-2 cells; assay type: ADME, cell-based
[16] = Cmax in Wistar rat at 10 mg/kg, po by UPLC-MS/MS analysis; assay type: ADME, organism-based; design: dose 10 mg/kg, route po; conditions: in vivo
[17] = Cmax in Wistar rat at 1 mg/kg, iv by UPLC-MS/MS analysis; assay type: ADME, organism-based; design: dose 1 mg/kg, route iv; conditions: in vivo
[18] = Tmax in Wistar rat at 10 mg/kg, po by UPLC-MS/MS analysis; assay type: ADME, organism-based; conditions: in vivo
[19] = Tmax in Wistar rat at 1 mg/kg, iv by UPLC-MS/MS analysis; assay type: ADME, organism-based; conditions: in vivo
[20] = AUC in Wistar rat at 10 mg/kg, po by UPLC-MS/MS analysis; assay type: ADME, organism-based; design: dose 10 mg/kg, route po; conditions: in vivo
[21] = AUC in Wistar rat at 1 mg/kg, iv by UPLC-MS/MS analysis; assay type: ADME, organism-based; design: dose 1 mg/kg, route iv; conditions: in vivo
[22] = Half life in Wistar rat at 1 mg/kg, iv by UPLC-MS/MS analysis; assay type: ADME, organism-based; conditions: in vivo
[23] = Clearance in Wistar rat at 1 mg/kg, iv by UPLC-MS/MS analysis; assay type: ADME, organism-based; conditions: in vivo
[24] = Volume of distribution at steady state in Wistar rat at 1 mg/kg, iv by UPLC-MS/MS analysis; assay type: ADME, organism-based; conditions: in vivo, read-out: Vdss
[25] = Oral bioavailability in Wistar rat at 10 mg/kg by UPLC-MS/MS analysis; assay type: ADME, organism-based; conditions: in vivo
[26] = Ratio AUC in Wistar rat brain to plasma at 10 mg/kg, po measured for 10 mins by UPLC-MS/MS analysis; assay type: ADME, organism-based; conditions: brain and plasma, read-out: Ratio AUC
[27] = Drug concentration in Wistar rat plasma at 10 mg/kg, po measured for 10 mins by UPLC-MS/MS analysis; assay type: ADME, organism-based
Neuron = test: Neuroprotective activity against MPP+ induced rat neurons at 10 uM pretreated with compond for 1 hr followed by MPP+ addition and measured after 48 hrs; assay type: functional, cell-based; conditions: time 49.0 hrs
Rattus norvegicus = test: Anti-alzheimer activity against amyloid beta peptide-induced cognitive impairment in Wistar rat model at 10 mg/kg, po measured for 10 days; assay type: functional, organism-based; conditions: time 10.0 day

Sequence of Sigma non-opioid intracellular receptor 1 (Q99720 whole entry): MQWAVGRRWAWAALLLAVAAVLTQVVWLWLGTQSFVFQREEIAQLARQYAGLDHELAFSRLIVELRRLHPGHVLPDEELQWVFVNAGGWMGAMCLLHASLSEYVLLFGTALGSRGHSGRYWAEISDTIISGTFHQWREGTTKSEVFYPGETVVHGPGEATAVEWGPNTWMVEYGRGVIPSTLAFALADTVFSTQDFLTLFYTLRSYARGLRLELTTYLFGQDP
Sequence of Sigma intracellular receptor 2 (Q5BJF2 whole entry): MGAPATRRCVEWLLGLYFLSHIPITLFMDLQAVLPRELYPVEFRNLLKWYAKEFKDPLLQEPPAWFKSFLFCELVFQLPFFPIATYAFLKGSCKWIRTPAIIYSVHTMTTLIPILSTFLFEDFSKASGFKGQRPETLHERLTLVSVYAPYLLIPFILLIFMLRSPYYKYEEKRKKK
Sequence of Cytochrome P450 3A4 (P08684 whole entry): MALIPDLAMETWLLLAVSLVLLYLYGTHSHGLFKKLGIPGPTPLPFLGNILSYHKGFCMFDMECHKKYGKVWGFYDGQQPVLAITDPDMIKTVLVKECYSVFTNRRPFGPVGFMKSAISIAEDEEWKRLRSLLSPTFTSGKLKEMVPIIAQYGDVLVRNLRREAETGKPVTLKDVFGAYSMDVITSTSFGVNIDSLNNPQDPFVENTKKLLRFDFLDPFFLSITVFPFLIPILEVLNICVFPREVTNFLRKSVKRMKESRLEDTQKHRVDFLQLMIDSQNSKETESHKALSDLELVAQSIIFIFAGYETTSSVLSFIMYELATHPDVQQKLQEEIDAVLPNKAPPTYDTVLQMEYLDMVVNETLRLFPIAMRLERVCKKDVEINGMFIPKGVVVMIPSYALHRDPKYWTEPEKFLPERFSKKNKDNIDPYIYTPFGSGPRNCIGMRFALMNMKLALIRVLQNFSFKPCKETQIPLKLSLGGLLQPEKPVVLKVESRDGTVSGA
Sequence of Cytochrome P450 2C19 (P33261 whole entry): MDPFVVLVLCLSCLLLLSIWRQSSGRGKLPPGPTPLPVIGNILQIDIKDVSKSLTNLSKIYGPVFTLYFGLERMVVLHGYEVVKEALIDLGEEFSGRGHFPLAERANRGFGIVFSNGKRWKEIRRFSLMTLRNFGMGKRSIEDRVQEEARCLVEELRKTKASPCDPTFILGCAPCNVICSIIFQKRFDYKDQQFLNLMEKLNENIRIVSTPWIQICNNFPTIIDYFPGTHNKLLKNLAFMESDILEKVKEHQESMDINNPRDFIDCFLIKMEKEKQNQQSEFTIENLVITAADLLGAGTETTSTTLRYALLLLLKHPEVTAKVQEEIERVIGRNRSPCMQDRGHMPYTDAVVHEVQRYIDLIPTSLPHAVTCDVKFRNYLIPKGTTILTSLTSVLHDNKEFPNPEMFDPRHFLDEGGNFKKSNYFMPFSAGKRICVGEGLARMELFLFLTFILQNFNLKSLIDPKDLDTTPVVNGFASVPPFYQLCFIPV
Sequence of Cytochrome P450 2C9 (P11712 whole entry): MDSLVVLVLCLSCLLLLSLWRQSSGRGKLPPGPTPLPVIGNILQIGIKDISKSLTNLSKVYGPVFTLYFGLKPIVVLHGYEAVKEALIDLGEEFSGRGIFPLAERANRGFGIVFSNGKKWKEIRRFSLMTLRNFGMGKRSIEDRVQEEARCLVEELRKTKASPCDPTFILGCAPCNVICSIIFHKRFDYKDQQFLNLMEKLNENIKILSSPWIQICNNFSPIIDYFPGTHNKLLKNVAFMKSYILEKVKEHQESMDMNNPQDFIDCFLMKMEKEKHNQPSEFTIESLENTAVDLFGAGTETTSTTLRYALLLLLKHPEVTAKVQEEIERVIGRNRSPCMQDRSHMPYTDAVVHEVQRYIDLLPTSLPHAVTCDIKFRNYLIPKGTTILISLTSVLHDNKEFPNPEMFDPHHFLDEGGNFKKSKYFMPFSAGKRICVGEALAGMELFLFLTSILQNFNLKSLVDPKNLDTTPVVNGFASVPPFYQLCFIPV
Sequence of Cytochrome P450 2D6 (P10635 whole entry): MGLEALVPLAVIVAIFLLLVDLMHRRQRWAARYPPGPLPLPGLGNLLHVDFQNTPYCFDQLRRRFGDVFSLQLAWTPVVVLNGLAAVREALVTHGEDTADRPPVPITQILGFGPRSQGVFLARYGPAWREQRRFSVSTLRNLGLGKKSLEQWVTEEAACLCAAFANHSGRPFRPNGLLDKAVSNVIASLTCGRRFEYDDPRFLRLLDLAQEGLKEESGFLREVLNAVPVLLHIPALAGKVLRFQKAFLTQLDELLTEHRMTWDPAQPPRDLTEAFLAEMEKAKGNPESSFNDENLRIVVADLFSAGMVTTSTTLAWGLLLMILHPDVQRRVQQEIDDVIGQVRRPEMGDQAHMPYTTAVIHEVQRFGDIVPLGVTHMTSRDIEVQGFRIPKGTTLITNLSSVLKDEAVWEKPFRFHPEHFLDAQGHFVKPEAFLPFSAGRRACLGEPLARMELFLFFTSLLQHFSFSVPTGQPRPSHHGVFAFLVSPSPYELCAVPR
Sequence of Voltage-gated inwardly rectifying potassium channel KCNH2 (Q12809 whole entry): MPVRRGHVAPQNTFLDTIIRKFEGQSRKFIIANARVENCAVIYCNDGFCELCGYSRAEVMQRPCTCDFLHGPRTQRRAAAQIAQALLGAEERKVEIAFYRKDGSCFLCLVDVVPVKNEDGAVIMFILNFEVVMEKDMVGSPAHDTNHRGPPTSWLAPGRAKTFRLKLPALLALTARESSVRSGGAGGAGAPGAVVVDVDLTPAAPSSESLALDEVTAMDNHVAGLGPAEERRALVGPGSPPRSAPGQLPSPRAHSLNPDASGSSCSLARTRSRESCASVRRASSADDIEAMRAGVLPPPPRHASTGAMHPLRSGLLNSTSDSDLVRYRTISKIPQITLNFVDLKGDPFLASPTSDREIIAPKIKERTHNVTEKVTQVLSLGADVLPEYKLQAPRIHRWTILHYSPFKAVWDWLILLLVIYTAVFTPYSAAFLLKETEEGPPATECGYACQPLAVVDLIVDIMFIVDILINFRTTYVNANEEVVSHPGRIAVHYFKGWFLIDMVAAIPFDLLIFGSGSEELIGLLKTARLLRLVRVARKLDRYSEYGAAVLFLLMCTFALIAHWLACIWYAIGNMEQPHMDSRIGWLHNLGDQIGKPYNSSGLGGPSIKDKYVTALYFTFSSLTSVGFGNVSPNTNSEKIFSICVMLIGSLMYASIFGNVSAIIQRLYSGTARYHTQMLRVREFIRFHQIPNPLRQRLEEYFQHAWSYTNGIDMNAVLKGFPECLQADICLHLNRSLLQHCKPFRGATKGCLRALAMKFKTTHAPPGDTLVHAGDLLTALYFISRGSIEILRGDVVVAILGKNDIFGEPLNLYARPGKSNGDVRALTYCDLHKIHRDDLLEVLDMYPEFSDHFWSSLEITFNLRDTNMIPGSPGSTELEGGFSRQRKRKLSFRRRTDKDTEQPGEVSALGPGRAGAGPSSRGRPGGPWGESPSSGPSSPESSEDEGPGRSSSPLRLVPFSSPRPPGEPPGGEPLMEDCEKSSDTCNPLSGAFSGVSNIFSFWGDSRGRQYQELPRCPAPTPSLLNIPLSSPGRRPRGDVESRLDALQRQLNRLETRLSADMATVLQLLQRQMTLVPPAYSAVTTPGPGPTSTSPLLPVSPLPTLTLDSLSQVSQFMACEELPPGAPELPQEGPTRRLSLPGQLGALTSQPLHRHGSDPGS

Compound `CCc1ncc(-c2cc(C)no2)c(C2CCN(CC(=O)N3CCOCC3)CC2)n1` has a Ki [1] of 1780 nM, a Ratio Ki (Homo sapiens) of 137 and a Ki [2] of 13 nM. For the same compound, the remaining at 1 h, 1 µM [3] was 93%, the remaining at 1 h, 1 µM [4] was 95% and the remaining at 1 h, 1 µM [5] was 93%. It also gave an IC50 [6] of over 10 µM, a logP [7] of 1.7 and a logD [8] of 1.4. For the same compound, the solubility [9] was 7280 µg/mL (≈ 18.2 mM), the pKa [10] was 7.4 and the IC50 (Cytochrome P450 1A2) was over 900 µM. It also gave an IC50 (Cytochrome P450 2C9) of 600 µM, an IC50 (Cytochrome P450 2C19) of over 900 µM and an IC50 (Cytochrome P450 2D6) of 133 µM. The IC50 (Cytochrome P450 3A4) was over 900 µM, the microsomal CLint [11] was 1.6 µL/min/mg and the microsomal CLint [12] was 1.5 µL/min/mg. It also gave a microsomal CLint [13] of 2.8 µL/min/mg, a Papp A→B at 2 h [14] of 17.7 ×10⁻⁶ cm/s and a Ratio [15] of 1.2. For the same compound, the Cmax [16] was 900 ng/mL, the Cmax [17] was 2020 ng/mL and the Tmax [18] was 48 min. It also gave a Tmax [19] of 18 min, an AUC [20] of 3000 ng·h/mL and an AUC [21] of 593 ng·h/mL. It also gave a half-life [22] of 60 min, a clearance [23] of 28.3 mL/min/kg and a Vd [24] of 0.8 L/kg. It also gave a bioavailability [25] of 51%, a Kp at 10 min [26] of 0.41 and a concentration at 10 min [27] of 250 ng/g. The Activity (Neuron) was “Active” and the Activity (Rattus norvegicus) was “Active”.
